US20100137206A1, “NOVEL LIGAND GUIDED BLOCK COPOLYMERS FOR TARGETED DRUG DELIVERY” (priority 2006, published 2010)
Like-named read-outs stand apart in the source and are kept apart here.

Tested on: B16-F10 cells
Experiment: MTT cytotoxicity of DOX-containing micelles
Assay type: cell-based
Conditions: for IC50: read-out: IC50 (μM) of DOX equivalent
Procedure: Briefly, 4000 cells were plated in 96-well plates and incubated for 24 h to allow the cells to attach. […] Living cells metabolize MTT to a dark formazan dye. The cell culture media was removed by aspiration and replaced with 200 μL DMSO. The absorbance was measured spectrophotometrically using a microplate reader at dual wavelengths of 570 nm and 650 nm. The data reported represent the means of triplicate measurement.

Compound: COc1cccc2c1C(=O)c1c(O)c3c(c(O)c1C2=O)C[C@@](O)(C(=O)CO)C[C@@H]3O[C@H]1C[C@H](N)[C@H](O)[C@H](C)O1 [Free DOX, doxorubicin, reference compound]
- IC50 (24 h incubation): 0.417 µM
- IC50 (48 h incubation): 0.204 µM

Compound: doxorubicin-conjugated acetal polyethylene oxide)-block-poly(caprolactone) [Acetal-PEO-b-PCL(DOX)]
- fold difference of IC50 in comparison to free DOX (24 h incubation): 14.3 fold
- IC50 (24 h incubation): 5.95 µM
- fold difference of IC50 in comparison to free DOX (48 h incubation): 6.3 fold
- IC50 (48 h incubation): 1.28 µM
